From patent US20210147498A1, “USE OF GRAM-NEGATIVE LYSIN-ANTIMICROBIAL PEPTIDE (AMP) POLYPEPTIDE CONSTRUCTS IN PULMONARY SURFACTANT AND BIOFILMS” (priority 2018, published 2021)
Like-named read-outs stand apart in the source and are kept apart here.

Tested on: carbapenem-resistant P. aeruginosa strains
Assay: microbe, parasite or virus in culture
Format: cell-based, Pseudomonas aeruginosa
Settings: for MIC: Pseudomonas aeruginosa; for MIC Combination / MIC Alone: vs. WC-452
Method: Such resensitization may be determined by combining the present lysins or lysin-AMP polypeptide constructs with an antibiotic in a checkerboard assay as described herein. Antibiotic-resistant bacteria, such as carbapenem-resistant P. aeruginosa, are added to the lysin or lysin-AMP polypeptide construct combination. […] See Clinical and Laboratory Standards Institute (CLSI), CLSI. […] M100 Performance Standards for Antimicrobial Susceptibility Testing; 29th Edition. Clinical and Laboratory Standards Institute, Wayne, Pa., which is herein incorporated by reference in its entirety.
Up to seven carbapenem-resistant isolates were assessed. […] See Clinical and Laboratory Standards Institute (CLSI), CLSI. […] M100 Performance Standards for Antimicrobial Susceptibility Testing; 29th Edition. Clinical and Laboratory Standards Institute, Wayne, Pa.

In the case of `C[C@@H](O)[C@H]1C(=O)N2C(C(=O)O)=C(SCCN=CN)C[C@H]12` [Imipenem, imipenem], the MIC (GN121, read-out: MIC (μg/mL) Alone, isolate PA20, checkerboard Imipenem + GN121) was 16 µg/mL, the MIC (GN121, read-out: MIC (μg/mL) Alone, isolate PA21, checkerboard Imipenem + GN121) was 32 µg/mL and the MIC (GN121, read-out: MIC (μg/mL) Alone, isolate PA23, checkerboard Imipenem + GN121) was 16 µg/mL. It also gave an MIC (GN123, read-out: MIC (μg/mL) Alone, isolate PA19, checkerboard IMIPENEM + GN123) of 32 µg/mL, an MIC (GN123, read-out: MIC (μg/mL) Alone, isolate PA20, checkerboard IMIPENEM + GN123) of 16 µg/mL and an MIC (GN123, read-out: MIC (μg/mL) Alone, isolate PA21, checkerboard IMIPENEM + GN123) of 32 µg/mL. The MIC (GN123, read-out: MIC (μg/mL) Alone, isolate PA22, checkerboard IMIPENEM + GN123) was 16 µg/mL, the MIC (GN123, read-out: MIC (μg/mL) Alone, isolate PA23, checkerboard IMIPENEM + GN123) was 8 µg/mL and the MIC (GN123, read-out: MIC (μg/mL) Alone, isolate PA24, checkerboard IMIPENEM + GN123) was 32 µg/mL. The MIC (GN123, read-out: MIC (μg/mL) Alone, isolate WC-452, checkerboard IMIPENEM + GN123) was 16 µg/mL, the “susceptibility category of the isolate, carbapenem Alone” value (isolate PA19) was “(R) ((R) = resistant)” and the “MIC (μg/mL) Combination” value (isolate PA19, IMIPENEM combined with GN123) was 0.5 µg/mL. The “MIC (μg/mL) Combination” value (isolate PA19, Imipenem combined with GN121) was 1 µg/mL, the “susceptibility category of the isolate, carbapenem in Combination” value (“susceptibility category … in Combination” for short) (isolate PA19, combined with GN121) was “(S) ((S) = sensitive)” and the “susceptibility category … in Combination” value (isolate PA19, combined with GN123) was “(S) ((S) = sensitive)”. The “susceptibility category of the isolate, carbapenem Alone” value (isolate PA20) was “(R) ((R) = resistant)”, the “MIC (μg/mL) Combination” value (isolate PA20, IMIPENEM combined with GN123) was 1 µg/mL and the “MIC (μg/mL) Combination” value (isolate PA20, Imipenem combined with GN121) was 0.5 µg/mL. For the same compound, the “susceptibility category … in Combination” value (isolate PA20, combined with GN121) was “(S) ((S) = sensitive)”, the “susceptibility category … in Combination” value (isolate PA20, combined with GN123) was “(S) ((S) = sensitive)” and the “susceptibility category of the isolate, carbapenem Alone” value (isolate PA21) was “(R) ((R) = resistant)”. The “MIC (μg/mL) Combination” value (isolate PA21, IMIPENEM combined with GN123) was 0.5 µg/mL, the “MIC (μg/mL) Combination” value (isolate PA21, Imipenem combined with GN121) was 1 µg/mL and the “susceptibility category … in Combination” value (isolate PA21, combined with GN121) was “(S) ((S) = sensitive)”. For the same compound, the “susceptibility category … in Combination” value (isolate PA21, combined with GN123) was “(S) ((S) = sensitive)”, the “susceptibility category of the isolate, carbapenem Alone” value (isolate PA22) was “(R) ((R) = resistant)” and the “MIC (μg/mL) Combination” value (isolate PA22, IMIPENEM combined with GN123) was 2 µg/mL. The “MIC (μg/mL) Combination” value (isolate PA22, Imipenem combined with GN121) was 2 µg/mL, the “susceptibility category … in Combination” value (isolate PA22, combined with GN121) was “(S) ((S) = sensitive)” and the “susceptibility category … in Combination” value (isolate PA22, combined with GN123) was “(S) ((S) = sensitive)”. For the same compound, the “susceptibility category of the isolate, carbapenem Alone” value (isolate PA23) was “(R) ((R) = resistant)”, the “MIC (μg/mL) Combination” value (isolate PA23, IMIPENEM combined with GN123) was 0.25 µg/mL and the “MIC (μg/mL) Combination” value (isolate PA23, Imipenem combined with GN121) was 0.125 µg/mL. The “susceptibility category … in Combination” value (isolate PA23, combined with GN121) was “(S) ((S) = sensitive)”, the “susceptibility category … in Combination” value (isolate PA23, combined with GN123) was “(S) ((S) = sensitive)” and the “susceptibility category of the isolate, carbapenem Alone” value (isolate PA24) was “(R) ((R) = resistant)”. The “MIC (μg/mL) Combination” value (isolate PA24, IMIPENEM combined with GN123) was 2 µg/mL, the “MIC (μg/mL) Combination” value (isolate PA24, Imipenem combined with GN121) was 1 µg/mL and the “susceptibility category … in Combination” value (isolate PA24, combined with GN121) was “(S) ((S) = sensitive)”. For the same compound, the “susceptibility category … in Combination” value (isolate PA24, combined with GN123) was “(S) ((S) = sensitive)”, the “susceptibility category of the isolate, carbapenem Alone” value (isolate WC-452) was “(R) ((R) = resistant)” and the “MIC (μg/mL) Combination” value (isolate WC-452, IMIPENEM combined with GN123) was 1 µg/mL. The “susceptibility category … in Combination” value (isolate WC-452, combined with GN123) was “(S) ((S) = sensitive)”, the “susceptibility category … in Combination” value (isolate WC-452, combined with GN351) was “(S) ((S) = sensitive)” and the “susceptibility category … in Combination” value (isolate WC-452, combined with GN370) was “(S) ((S) = sensitive)”. For the same compound, the “susceptibility category … in Combination” value (isolate WC-452, combined with GN428) was “(S) ((S) = sensitive)”, the MIC Combination (IPM combined with GN351) was 0.5 µg/mL and the MIC Combination (IPM combined with GN370) was 0.5 µg/mL. For the same compound, the MIC Combination (IPM combined with GN428) was 1 µg/mL, the MIC Alone (checkerboard IPM + GN351) was 16 µg/mL and the MIC Alone (checkerboard IPM + GN370) was 16 µg/mL. It also gave an MIC Alone (checkerboard IPM + GN428) of 16 µg/mL.
